Test results: ChEMBL document CHEMBL1201862, “PubChem BioAssay data set” (2004)
One block for each compound: values may come before it. Calls of active or inactive are those of the source.

Assays:
[1] = target: T1, Nuclear receptor subfamily 0 group B member 1 (Homo sapiens, UniProt P51843); assay: Luminescence-based cell-based high throughput dose response assay for inhibitors of the orphan nuclear receptor subfamily 0, group B, member 1 (DAX1; NR0B1). [Related pubchem assays (depositor defined):AID504766, AID504790]; assay type: functional
T1 sequence (P51843 whole entry): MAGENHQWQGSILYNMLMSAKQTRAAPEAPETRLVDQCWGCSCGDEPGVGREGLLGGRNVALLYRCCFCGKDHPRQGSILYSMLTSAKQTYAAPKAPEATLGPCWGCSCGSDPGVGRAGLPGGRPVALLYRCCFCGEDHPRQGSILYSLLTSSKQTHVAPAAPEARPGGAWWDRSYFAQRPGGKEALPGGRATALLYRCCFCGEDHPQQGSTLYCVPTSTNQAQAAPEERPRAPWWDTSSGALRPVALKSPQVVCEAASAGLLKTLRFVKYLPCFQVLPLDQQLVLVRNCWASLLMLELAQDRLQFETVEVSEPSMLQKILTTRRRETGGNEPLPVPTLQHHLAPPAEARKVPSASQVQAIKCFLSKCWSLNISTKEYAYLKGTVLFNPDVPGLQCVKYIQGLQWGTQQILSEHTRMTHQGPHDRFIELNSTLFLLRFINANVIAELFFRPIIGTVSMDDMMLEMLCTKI

HEK293 [2] = assay: cells; assay type: functional, cell-based; conditions: Homo sapiens
[3] = target: Type-1 angiotensin II receptor (Homo sapiens, UniProt P30556); assay: antagonism of angiotensin II type 1 receptor – cell-based, uHTS hits, selectivity assay for APJ receptor antagonist project, dose response (AID 463214); assay type: functional;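 also: antagonist potency against angiotensin II stimulated AT1 response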
Beta-galactosidase = Beta-galactosidase (Escherichia coli, UniProt Q8VNN2); assay: PubChem AID 485352; assay type: functional
Jurkat [4] = assay: blockers of NF-kB activation in T cells – Jurkat, luciferase reporter, luminescence, B- and T-cell, dose response (AID 489004); assay type: functional, cell-based; conditions: Homo sapiens;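 also: NF-kB luciferase reporter Jurkat cells stimulated with PMA plus ionomycin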
[5] = HEK-293T viability loss, compound-treated – cell-based, uHTS hits, cytotoxicity control for B/T-cell NF-kB inhibitor project, dose response (AID 489019); assay type: functional;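 also: IC50 reflects cytotoxicity as loss of cell viability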
Aspartyl aminopeptidase = target: T2, Aspartyl aminopeptidase (Plasmodium falciparum 3D7, UniProt Q8I2J3); assay: Counterscreen for inhibitors of M1 and M17 aminopeptidases: QFRET-based biochemical high throughput dose response assay for inhibitors of the Plasmodium falciparum M18 Aspartyl Aminopeptidase (PFM18AAP). [Related PubChem assays: 1619 (Screening assay (M17LAP inhibitors).), 1445 (Screening assay (M1AAP inhibitors).)]
T2 sequence (Q8I2J3 whole entry): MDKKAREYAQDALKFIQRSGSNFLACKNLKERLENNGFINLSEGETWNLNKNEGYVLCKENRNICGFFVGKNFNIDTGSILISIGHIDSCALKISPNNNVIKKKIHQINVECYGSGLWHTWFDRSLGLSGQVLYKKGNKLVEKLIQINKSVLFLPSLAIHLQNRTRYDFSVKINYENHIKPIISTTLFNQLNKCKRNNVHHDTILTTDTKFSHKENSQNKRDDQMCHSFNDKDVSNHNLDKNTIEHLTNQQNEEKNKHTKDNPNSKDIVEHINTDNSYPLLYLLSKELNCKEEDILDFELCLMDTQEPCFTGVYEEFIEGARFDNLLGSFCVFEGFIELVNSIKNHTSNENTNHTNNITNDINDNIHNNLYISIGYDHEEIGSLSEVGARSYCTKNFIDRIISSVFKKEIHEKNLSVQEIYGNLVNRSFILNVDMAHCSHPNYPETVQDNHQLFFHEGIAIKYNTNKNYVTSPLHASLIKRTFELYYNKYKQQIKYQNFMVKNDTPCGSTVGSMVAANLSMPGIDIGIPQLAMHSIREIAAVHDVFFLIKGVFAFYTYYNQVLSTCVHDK

[6] = HIV-1 AD8 envelope cell-cell fusion blockers – cherry-pick, dose response (AID 652062); assay type: functional, cell-based;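 also: luciferase signal from cell-cell fusion driven by HIV-1 clade B AD8 Env; potency is for inhibitors of fusion seen as a drop in luminescence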
Leucine aminopeptidase = target: T3, Leucine aminopeptidase (Plasmodium falciparum 3D7, UniProt Q8IL11); assay: P. falciparum M17LAP inhibitors, primary screen, biochemical, fluorogenic H-Leu-NHMec substrate, 1536-well (AID 1619); assay type: functional
T3 sequence (Q8IL11 whole entry): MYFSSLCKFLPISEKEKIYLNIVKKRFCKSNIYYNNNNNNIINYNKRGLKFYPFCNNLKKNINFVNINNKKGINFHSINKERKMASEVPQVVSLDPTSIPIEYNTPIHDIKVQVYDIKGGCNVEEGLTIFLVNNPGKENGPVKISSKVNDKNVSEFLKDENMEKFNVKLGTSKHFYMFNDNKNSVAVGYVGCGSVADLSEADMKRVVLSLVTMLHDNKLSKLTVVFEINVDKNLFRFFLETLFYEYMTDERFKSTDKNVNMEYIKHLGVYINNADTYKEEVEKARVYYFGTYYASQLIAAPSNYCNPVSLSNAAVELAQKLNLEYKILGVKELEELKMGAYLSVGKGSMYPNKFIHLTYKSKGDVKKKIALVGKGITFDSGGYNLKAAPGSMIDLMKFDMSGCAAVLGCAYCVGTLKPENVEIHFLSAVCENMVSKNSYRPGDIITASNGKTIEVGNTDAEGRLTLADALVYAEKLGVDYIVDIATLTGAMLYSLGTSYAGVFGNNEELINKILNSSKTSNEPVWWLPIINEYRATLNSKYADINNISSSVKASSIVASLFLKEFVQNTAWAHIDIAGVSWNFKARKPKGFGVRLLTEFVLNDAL

[7] = blockers of bursicon-stimulated LGR2 cAMP reporter – cell-based, HEK293, CRE-luciferase reporter, cherry pick, set 2, dose response (AID 743343); assay type: functional;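 also: transfected cells were stimulated with diluted bursicon conditioned medium after compound addition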
[8] = blockers of HIV-1 envelope-mediated cell-cell fusion – cherry-pick, dose response (AID 652057); assay type: functional, cell-based
[9] = target: T4, Microphthalmia-associated transcription factor (Homo sapiens, UniProt O75030); assay: reducers of TRPM1 reporter luminescence, concentration series – cell-based, SK-MEL-5, cherry-picked, set 3, MITF inhibitor project, dose response (AID 493073); assay type: functional;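 also: SK-MEL-5 melanoma cells with luciferase driven by the MITF target TRPM1 promoter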
T4 sequence (O75030 whole entry): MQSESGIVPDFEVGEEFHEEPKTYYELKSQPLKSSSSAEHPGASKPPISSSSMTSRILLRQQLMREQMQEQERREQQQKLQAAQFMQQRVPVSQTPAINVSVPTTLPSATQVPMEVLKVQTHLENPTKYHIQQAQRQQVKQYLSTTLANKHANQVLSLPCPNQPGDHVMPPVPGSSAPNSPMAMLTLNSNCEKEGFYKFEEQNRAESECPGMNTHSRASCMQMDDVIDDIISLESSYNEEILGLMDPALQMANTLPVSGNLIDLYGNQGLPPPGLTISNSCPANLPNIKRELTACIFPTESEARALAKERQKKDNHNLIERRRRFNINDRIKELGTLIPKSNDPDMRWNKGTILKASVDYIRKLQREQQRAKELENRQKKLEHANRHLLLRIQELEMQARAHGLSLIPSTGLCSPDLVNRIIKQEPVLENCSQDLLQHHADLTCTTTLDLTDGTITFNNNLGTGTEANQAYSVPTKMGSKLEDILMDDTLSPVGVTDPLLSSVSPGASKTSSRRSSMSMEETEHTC

[10] = blockade of melanocortin 4 receptor signaling – cell-based, plate reader, cherry pick, counter-screen for LGR2 antagonist project, dose response (AID 743444); assay type: functional;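 also: transfected HEK 293 cells stimulated with alpha-MSH peptide; potency of inhibitors of the alpha-MSH evoked signal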
[11] = A549 cell cytotoxicity, dose response, cytotoxicity control, plate reader, cherry-pick, antagonist series (AID 743412); assay type: functional, cell-based
Procathepsin L = Procathepsin L (Homo sapiens, UniProt P07711); assay: CTSL1 protease inhibition – biochemical, QFRET, 1536-well, counter-screen for M1/M17 aminopeptidase inhibitor project, dose response (AID 2214)
[12] = off-target signal loss in HeLa-CEM21 co-culture – HeLa F-luc CTL cells, cherry-picked, counter-screen for HIV-1 Env fusion inhibitor project, dose response (AID 652040); assay type: functional, cell-based;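 also: potency for signal decrease marking cytotoxic or nonspecific inhibition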
HEK293 [13] = assay: SAR Analysis of small molecule inhibitors of T-cell specific antigen receptor-induced NF-kB activation in a HEK-293T cell line using a luminescence assay - Set 2. [Related pubchem assays (depositor defined):AID435003, AID435012, AID489026]; assay type: functional, cell-based; conditions: Homo sapiens
Jurkat [14] = assay: SAR Analysis of small molecule inhibitors of T-cell specific antigen receptor-induced NF-kB activation in a Jurkat cell line using a luminescence assay - Set 2. [Related pubchem assays (depositor defined):AID435003, AID435012, AID465]; assay type: functional, cell-based; conditions: Homo sapiens
HEK293 [15] = assay: HEK293T cell viability loss, resazurin readout – resazurin fluorescence, cytotoxicity control for NF-kB activator project, SAR follow-up (AID 493251); assay type: functional, cell-based; conditions: Homo sapiens
[16] = target: T5, Corticotropin-releasing factor receptor 2/Corticotropin-releasing factor-binding protein (Homo sapiens, UniProt P24387+Q13324); assay: activators of CRF receptor 2 with binding protein – uHTS hits, confirmation (AID 602473); assay type: functional; conditions: read-out: EC50_Mean
T5 sequence (Q13324 whole entry): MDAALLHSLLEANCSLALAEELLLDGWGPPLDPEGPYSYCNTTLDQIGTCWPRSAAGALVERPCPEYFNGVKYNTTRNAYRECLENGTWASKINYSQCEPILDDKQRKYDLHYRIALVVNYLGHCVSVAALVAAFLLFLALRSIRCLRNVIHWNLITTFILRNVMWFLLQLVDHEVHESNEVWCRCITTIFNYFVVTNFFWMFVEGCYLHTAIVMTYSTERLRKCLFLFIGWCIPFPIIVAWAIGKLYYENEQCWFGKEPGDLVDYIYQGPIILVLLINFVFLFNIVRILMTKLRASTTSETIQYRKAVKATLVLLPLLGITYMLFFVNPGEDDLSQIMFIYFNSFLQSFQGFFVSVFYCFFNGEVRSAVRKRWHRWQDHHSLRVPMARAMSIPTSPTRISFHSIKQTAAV
T5 sequence (P24387 whole entry): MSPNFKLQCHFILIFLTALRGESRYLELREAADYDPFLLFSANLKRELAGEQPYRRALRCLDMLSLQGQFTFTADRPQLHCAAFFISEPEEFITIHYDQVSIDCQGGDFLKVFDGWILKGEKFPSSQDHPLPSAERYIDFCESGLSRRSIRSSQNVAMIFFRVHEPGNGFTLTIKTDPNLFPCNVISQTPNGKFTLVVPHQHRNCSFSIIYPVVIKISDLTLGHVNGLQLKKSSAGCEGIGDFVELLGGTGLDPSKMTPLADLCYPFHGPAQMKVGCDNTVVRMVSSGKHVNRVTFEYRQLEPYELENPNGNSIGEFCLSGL

[17] = target: T5, Corticotropin-releasing factor receptor 2/Corticotropin-releasing factor-binding protein; assay: Dose Response confirmation of uHTS hits for small molecule antagonists of the CRF-binding protein and CRF-R2 receptor complex.; assay type: functional; conditions: read-out: IC50_Mean
[18] = Luminescence Cell-Based Dose Retest to Confirm Inhibitors of Cancer Stem Cells. [Related pubchem assays (depositor defined):AID2717, AID2721]; assay type: functional; conditions: Homo sapiens
[19] = viability loss of HMLE_sh_eGFP cells – cell-based, luminescence, counter-screen for HMLE_sh_ECad selective toxicity project, dose response (AID 463074); assay type: functional, Homo sapiens;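 also: HMLE human mammary epithelial cells expressing control shRNA against eGFP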

Sequence of Beta-galactosidase (Q8VNN2 whole entry): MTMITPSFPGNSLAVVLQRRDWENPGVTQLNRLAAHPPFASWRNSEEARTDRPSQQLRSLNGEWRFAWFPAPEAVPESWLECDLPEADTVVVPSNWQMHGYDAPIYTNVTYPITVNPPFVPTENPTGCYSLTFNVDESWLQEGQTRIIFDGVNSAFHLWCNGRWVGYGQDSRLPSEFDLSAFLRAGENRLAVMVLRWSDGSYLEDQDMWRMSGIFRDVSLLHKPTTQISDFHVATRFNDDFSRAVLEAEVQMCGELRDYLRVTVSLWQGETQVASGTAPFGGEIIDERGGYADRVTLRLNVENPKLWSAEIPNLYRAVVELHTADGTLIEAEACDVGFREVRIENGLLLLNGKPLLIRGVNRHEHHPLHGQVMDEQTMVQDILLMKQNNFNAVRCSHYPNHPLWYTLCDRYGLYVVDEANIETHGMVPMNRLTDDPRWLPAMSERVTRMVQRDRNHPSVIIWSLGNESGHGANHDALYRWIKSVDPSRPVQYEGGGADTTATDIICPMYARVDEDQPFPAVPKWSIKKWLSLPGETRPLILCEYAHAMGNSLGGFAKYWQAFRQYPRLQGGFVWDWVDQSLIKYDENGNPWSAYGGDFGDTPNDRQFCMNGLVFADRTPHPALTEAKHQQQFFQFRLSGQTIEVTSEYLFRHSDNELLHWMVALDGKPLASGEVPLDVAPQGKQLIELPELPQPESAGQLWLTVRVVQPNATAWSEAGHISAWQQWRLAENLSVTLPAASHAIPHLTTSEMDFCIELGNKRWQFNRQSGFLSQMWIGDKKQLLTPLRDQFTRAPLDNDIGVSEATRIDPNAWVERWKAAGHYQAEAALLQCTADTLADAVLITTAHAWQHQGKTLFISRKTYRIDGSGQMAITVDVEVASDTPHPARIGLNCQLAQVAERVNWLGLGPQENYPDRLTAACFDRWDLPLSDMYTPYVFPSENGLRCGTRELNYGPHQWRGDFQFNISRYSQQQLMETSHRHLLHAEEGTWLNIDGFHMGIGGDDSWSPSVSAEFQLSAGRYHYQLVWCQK
Sequence of Type-1 angiotensin II receptor (P30556 whole entry): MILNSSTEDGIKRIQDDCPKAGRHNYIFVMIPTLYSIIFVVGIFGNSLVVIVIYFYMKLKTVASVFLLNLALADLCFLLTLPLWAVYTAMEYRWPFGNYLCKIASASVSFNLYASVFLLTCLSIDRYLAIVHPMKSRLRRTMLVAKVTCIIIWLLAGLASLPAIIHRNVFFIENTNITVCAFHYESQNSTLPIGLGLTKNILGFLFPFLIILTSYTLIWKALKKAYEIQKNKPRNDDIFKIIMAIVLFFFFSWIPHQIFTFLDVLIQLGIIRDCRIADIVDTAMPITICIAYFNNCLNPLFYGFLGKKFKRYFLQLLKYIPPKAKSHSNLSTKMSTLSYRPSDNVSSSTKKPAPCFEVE
Sequence of Procathepsin L (P07711 whole entry, the tested form may be a part): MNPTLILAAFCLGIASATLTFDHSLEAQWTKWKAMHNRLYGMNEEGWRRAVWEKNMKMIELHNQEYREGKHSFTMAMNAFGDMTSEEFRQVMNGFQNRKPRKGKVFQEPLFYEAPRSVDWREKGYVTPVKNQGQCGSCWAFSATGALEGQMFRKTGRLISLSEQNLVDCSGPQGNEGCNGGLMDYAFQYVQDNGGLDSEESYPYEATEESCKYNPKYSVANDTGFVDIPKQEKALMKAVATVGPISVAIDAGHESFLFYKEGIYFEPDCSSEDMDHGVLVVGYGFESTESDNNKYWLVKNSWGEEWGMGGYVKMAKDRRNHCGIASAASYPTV

SMILES: Cc1ccc(NC(=O)c2ccccc2F)c(NC(=O)c2ccccc2F)c1
- IC50 [1]: > 67.5 µM (inactive)
- IC50 (HEK293 [2]): > 67.5 µM (inactive)

- IC50 [3]: 24.4 µM (not active)
- EC50 (Beta-galactosidase): > 40 µM (inactive)
SMILES: CC(C(=O)OCC(=O)c1cccc([N+](=O)[O-])c1)N1C(=O)C2C3CCC(C3)C2C1=O (centres undefined)

SMILES: CC(C)(O)c1[nH]c2ccc(C#N)cc2c1C(C)(C)O
- IC50 (Jurkat [4]): > 80 µM (inactive)
- IC50 [5]: > 80 µM (inactive)

SMILES: Cc1nn(-c2ccccc2)c(Cl)c1C(=O)N1CCN(C)CC1
- IC50 [1]: > 67.5 µM (inactive)
- IC50 (HEK293 [2]): > 67.5 µM (inactive)

SMILES: O=C(Nc1ccc(Cl)cc1)Nc1cccc(C(=O)O)c1
- IC50 (Aspartyl aminopeptidase): > 73.5 µM (not active)
- AC50 [6]: 2.51 µM (active)
- IC50 (Jurkat [4]): 3.35 µM (active)
- IC50 (Leucine aminopeptidase): < 1 µM (active)
- AC50 [7]: 2.93 µM (active)
- AC50 [8]: 2.22 µM (active)
- AC50 [9]: 3.79 µM (active)
- AC50 [10]: 1.88 µM (active)
- IC50 [5]: > 80 µM (inactive)
- AC50 [11]: > 52 µM (inactive)
- IC50 (Procathepsin L): > 59.6 µM (not active)
- AC50 [12]: 2.95 µM (active)

SMILES: COc1ccc(C(NC(=O)CC(C)C)c2ccc3cccnc3c2O)cc1OC (centres undefined)
- IC50 (HEK293 [13]): 6.6 µM (active)
- IC50 (Jurkat [14]): 5.48 µM (active)
- IC50 (HEK293 [15]): 20.1 µM (inactive)

- EC50 [16]: > 53 µM (inactive)
- IC50 [3]: 17.7 µM (active)
- EC50 (Beta-galactosidase): > 40 µM (inactive)
- IC50 [17]: > 47.1 µM (inactive)
SMILES: ON1C(c2ccc(Cl)cc2Cl)N(O)[C@H]2CCCC[C@H]21 (some centres undefined)

SMILES: CCC(=O)NC(c1ccc(N(C)C)cc1)c1ccc2cccnc2c1O (centres undefined)
- IC50 (HEK293 [13]): 7 µM (active)
- IC50 (Jurkat [14]): 2.67 µM (active)
- IC50 (HEK293 [15]): 18.4 µM (active)

SMILES: COc1ccc(N=C(S)N(C)N=C(S)Nc2ccc(OC)cc2)cc1
- AC50 [18]: 16.3 µM (active)
- AC50 [19]: 22 µM (active)

SMILES: CCCOc1ccc(C(=O)N2CCN(c3ccc(N)cc3Cl)CC2)cc1
- AC50 [18]: 10.1 µM (active)
- AC50 [19]: 47.8 µM (active)
